Data on one molecule can be found in paper PMC7206119, “RIP1 inhibition blocks inflammatory diseases but not tumor growth or metastases” (Cell Death and Differentiation, 2019).

What all share (assay): biochemical
Set-up in all cases: Thermo Fisher SelectScreen kinase panel: Z'-LYTE and Adapta activity, LanthaScreen binding
On the technique in general: Time-resolved FRET reads energy transfer from a long-lived donor to a nearby acceptor.

In assay [1] the target is T1, PKC_zeta (Homo sapiens, UniProt Q05513).
T1 construct: gene PRKCZ
On the procedure:
(§1) 5 88 GNE684 was tested in Thermo Fisher Scientific SelectScreen assay (Madison, WI) 89 against 221 representative kinases at a concentration of 10 µM, which is 476-fold greater than the Ki app 90 for GNE684 against human RIP1 in the RIP1 enzyme 91 assay. The kinase assays were carried out using Z'-LYTE and Adapta activity and 92 LanthaScreen binding assays (Thermo Fisher Scientific, Madison WI) following 93 protocols developed and performed by Thermo Fisher Scientific 94 (https://www.thermofisher.com/us/en/home/products-and-services/services/custom-95 services/screening-and-profiling-services/selectscreen-profiling-service/selectscreen-96 kinase-profiling-service.html). 97 GNE684 was also tested against 468 kinases in the KINOMEscan scanMAX kinase 98 binding assay panel at a concentration of 10 µM following protocols developed and 99 performed by DiscoverX (http://www.discoverx.com/kinase_profiling).

The target in assay [2] is T2, TRKB (Homo sapiens, UniProt Q16620).
T2 construct: gene NTRK2
T2 sequence (Q16620 whole entry): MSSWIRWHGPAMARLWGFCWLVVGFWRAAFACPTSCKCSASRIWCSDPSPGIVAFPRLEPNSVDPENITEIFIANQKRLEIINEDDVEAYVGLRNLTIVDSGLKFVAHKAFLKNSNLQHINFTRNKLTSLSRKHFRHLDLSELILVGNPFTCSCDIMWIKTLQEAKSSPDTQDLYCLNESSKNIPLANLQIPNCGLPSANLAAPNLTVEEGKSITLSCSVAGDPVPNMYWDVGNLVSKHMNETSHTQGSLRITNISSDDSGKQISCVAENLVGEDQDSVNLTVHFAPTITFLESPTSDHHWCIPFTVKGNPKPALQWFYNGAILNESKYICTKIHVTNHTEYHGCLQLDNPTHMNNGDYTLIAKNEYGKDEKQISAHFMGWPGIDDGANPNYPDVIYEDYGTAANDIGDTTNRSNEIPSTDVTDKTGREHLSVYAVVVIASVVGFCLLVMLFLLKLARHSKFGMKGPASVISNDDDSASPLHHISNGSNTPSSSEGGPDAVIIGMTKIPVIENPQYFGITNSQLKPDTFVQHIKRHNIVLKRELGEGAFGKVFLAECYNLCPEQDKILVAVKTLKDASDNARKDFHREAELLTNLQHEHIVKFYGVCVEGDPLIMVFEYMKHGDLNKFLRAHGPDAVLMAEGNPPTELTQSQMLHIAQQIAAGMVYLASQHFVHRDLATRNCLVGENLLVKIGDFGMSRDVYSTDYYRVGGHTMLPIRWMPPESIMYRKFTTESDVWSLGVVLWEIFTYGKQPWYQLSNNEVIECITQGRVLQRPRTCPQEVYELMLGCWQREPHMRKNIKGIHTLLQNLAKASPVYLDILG
The procedure:
as §1

The target in assay [3] is T3, JNK2 (Homo sapiens, UniProt P45984).
T3 construct: gene MAPK9
On the procedure:
as §1

Assay [4] concerns the target T4, MST4 (Homo sapiens, UniProt Q9P289).
T4 construct: gene STK26
The procedure: as §1

Assay [5] concerns the target T5, CDK5/p25 (Homo sapiens, UniProt Q00535).
T5 construct: p25
On the procedure:
as §1

Assay [6] has as its target EPHA8 (Homo sapiens, UniProt P29322). The procedure:
as §1

For assay [7], the target named is ACVR2B (Homo sapiens, UniProt Q13705). The procedure: as §1
Sequence of ACVR2B (Q13705 whole entry): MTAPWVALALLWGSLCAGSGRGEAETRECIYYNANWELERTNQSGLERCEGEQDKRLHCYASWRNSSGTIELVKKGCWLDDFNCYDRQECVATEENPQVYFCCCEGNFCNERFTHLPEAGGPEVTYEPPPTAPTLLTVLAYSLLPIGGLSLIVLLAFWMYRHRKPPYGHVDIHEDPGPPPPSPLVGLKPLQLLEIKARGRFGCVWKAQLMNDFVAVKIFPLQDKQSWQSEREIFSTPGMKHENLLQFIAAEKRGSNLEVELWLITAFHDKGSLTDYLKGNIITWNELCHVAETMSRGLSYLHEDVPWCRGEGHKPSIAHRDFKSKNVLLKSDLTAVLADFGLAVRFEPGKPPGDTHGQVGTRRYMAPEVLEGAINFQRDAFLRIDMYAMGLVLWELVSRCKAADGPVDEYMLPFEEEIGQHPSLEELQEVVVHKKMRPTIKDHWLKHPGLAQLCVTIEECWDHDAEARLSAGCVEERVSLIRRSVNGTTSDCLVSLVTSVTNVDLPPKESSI
Assay [8] has as its target CLK2 (Homo sapiens, UniProt P49760). The procedure:
as §1

Assay [9] has as its target MAP4K4 (Homo sapiens, UniProt O95819). The procedure: as §1
In assay [10] the target is TBK1 (Homo sapiens, UniProt Q9UHD2). On the procedure:
as §1

Assay [11] deals with T6, Mer (Homo sapiens, UniProt Q12866).
T6 construct: gene MERTK
T6 sequence (Q12866 whole entry): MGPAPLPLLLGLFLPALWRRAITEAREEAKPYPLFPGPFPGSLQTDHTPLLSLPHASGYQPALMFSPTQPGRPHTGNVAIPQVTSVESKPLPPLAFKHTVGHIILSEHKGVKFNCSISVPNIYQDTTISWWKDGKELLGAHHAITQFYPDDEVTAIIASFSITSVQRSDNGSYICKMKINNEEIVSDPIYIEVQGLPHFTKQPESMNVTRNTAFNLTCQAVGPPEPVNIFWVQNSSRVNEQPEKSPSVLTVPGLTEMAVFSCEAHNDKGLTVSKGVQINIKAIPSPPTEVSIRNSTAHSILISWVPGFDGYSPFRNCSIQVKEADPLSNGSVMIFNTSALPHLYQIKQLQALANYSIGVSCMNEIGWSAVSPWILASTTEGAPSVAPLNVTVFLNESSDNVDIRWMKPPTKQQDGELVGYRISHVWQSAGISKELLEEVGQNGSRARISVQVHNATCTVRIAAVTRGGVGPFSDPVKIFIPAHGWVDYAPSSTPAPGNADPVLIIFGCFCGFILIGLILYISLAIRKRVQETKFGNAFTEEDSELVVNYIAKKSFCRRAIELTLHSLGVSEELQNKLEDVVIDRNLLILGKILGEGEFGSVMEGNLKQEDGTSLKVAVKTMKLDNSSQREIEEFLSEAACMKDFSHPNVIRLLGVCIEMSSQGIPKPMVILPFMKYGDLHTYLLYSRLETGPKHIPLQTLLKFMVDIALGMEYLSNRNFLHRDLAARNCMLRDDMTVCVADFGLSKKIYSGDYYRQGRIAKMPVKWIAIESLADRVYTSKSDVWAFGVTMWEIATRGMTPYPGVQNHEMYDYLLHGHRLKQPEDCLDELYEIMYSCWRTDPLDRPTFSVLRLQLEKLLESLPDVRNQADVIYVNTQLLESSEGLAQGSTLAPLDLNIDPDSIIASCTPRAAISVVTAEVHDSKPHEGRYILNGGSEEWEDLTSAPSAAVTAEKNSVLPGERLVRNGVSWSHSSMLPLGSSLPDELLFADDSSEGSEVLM
On the procedure: as §1

For assay [12], the target named is LYN (Homo sapiens, UniProt P07948). On the procedure:
as §1

Assay [13] deals with T7, Srm (Homo sapiens, UniProt Q9H3Y6).
T7 construct: gene SRMS
The procedure: as §1

Assay [14] deals with FLT3 (Homo sapiens, UniProt P36888). On the procedure: as §1
Sequence of FLT3 (P36888 whole entry): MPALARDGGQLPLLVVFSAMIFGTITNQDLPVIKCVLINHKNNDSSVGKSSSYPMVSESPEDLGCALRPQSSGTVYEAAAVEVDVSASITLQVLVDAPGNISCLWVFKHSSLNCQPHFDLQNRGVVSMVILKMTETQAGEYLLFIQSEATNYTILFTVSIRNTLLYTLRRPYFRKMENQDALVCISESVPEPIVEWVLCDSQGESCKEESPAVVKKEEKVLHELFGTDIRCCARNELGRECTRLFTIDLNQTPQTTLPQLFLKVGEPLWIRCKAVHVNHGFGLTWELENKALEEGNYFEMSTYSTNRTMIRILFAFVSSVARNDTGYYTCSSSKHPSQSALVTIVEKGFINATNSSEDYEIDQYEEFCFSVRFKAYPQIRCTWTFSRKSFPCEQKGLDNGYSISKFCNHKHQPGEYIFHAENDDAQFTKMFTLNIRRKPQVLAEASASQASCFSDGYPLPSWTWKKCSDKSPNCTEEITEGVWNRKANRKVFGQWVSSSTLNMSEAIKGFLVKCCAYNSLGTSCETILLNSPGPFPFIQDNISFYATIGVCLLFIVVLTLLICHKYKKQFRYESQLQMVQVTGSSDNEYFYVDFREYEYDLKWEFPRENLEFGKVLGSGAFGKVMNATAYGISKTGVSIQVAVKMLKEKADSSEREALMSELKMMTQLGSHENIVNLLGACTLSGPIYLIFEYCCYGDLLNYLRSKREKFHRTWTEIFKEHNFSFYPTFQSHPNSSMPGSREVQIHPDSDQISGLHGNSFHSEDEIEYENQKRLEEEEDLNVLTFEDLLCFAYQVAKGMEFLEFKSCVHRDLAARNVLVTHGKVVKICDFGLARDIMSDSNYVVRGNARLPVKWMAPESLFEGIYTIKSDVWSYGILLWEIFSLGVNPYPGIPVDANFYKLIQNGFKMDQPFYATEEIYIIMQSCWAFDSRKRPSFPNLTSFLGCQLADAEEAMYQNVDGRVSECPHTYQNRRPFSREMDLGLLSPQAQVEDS
The target in assay [15] is T8, PKC_delta (Homo sapiens, UniProt Q05655).
T8 construct: gene PRKCD
The procedure:
as §1

For assay [16], the target named is T9, DCAMKL2 (Homo sapiens, UniProt Q8N568).
T9 construct: gene DCLK2
The procedure:
as §1

For assay [17], the target named is RIPK2 (Homo sapiens, UniProt O43353). On the procedure: as §1
Assay [18] has as its target CLK3 (Homo sapiens, UniProt P49761). The procedure:
as §1

Assay [19] concerns the target T10, p38_alpha(direct) (Homo sapiens, UniProt Q16539).
T10 construct: gene MAPK14; direct
The procedure: as §1

The target of assay [20] is HIPK2 (Homo sapiens, UniProt Q9H2X6). The procedure:
as §1

Assay [21] concerns the target T11, PKC_beta1 (Homo sapiens, UniProt P05771).
T11 construct: gene PRKCB; isoform beta I
On the procedure: as §1

In assay [22] the target is FGFR1 (Homo sapiens, UniProt P11362). On the procedure:
as §1

Assay [23] deals with T12, CaMKI_delta (Homo sapiens, UniProt Q8IU85).
T12 construct: gene CAMK1D
On the procedure:
as §1

As usually defined, the inhibition is the drop in the measured response relative to a control, in per cent.

T4 sequence (Q9P289 whole entry): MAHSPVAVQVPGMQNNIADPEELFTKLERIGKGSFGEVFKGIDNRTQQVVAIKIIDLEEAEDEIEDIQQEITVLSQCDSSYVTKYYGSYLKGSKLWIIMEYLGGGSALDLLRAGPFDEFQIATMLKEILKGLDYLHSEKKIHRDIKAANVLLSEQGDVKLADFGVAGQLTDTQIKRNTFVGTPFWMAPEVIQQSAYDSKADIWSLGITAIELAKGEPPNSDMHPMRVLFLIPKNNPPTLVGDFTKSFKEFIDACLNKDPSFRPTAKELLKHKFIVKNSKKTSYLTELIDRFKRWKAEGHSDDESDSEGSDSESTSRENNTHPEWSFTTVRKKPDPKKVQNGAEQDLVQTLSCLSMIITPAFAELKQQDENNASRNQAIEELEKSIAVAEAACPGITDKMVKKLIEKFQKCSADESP
Sequence of EPHA8 (P29322 whole entry): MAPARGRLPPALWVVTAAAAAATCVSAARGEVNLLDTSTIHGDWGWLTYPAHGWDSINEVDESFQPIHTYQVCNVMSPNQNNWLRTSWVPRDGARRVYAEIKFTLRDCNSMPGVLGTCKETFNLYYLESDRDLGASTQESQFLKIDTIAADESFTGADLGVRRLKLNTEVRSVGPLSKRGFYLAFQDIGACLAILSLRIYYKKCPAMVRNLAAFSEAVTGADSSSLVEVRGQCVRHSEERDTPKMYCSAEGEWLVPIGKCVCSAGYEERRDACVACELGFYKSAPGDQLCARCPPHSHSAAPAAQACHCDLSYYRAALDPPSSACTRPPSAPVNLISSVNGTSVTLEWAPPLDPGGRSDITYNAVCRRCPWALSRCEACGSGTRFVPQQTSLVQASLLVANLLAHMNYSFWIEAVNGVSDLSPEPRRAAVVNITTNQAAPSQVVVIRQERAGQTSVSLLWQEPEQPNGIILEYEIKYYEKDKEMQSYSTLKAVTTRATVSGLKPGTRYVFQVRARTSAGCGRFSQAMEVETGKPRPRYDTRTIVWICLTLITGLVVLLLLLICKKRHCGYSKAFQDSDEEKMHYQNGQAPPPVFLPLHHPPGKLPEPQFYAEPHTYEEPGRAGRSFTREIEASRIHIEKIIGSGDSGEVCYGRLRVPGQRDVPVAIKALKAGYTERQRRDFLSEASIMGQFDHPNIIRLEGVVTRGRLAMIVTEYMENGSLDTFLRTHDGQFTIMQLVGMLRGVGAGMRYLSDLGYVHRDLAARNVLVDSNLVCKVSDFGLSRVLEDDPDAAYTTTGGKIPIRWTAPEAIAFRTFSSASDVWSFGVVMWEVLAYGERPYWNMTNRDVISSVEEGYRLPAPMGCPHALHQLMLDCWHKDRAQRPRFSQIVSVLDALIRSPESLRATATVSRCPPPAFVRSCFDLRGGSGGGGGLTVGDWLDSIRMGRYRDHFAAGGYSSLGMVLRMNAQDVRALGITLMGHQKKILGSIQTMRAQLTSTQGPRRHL

For the molecule `COc1cc2c(cn1)N(C)C(=O)[C@@H](NC(=O)c1nc3n(n1)[C@H](c1ccccc1)CC3)CC2` [GNE684, (S)-N-((S)-7-methoxy-1-methyl-2-oxo-2,3,4,5-tetrahydro-1H-pyrido[3,4-b]azepin-3-yl)-5-phenyl-6,7-dihydro-5H-pyrrolo[1,2-b][1,2,4]triazole-2-carboxamide], the inhibition at 10 µM in assay [1] is -2.5%; in [2], -5%; in assay [3], -4%; in assay [4], 3.5%; in [5], 4.5%; in assay [6], 5.5%. The inhibition at 10 µM was 5% in assay [7]; 2.5% in assay [8]; 11.5% in assay [9]; 1% in [10]; -5% in [11]; 7% in [12]. Further, the inhibition at 10 µM was 9% in assay [13]; 10% in assay [14]; 8% in assay [15]; 2% in assay [16]; 2% in [17]; 1.5% in [18]. The inhibition at 10 µM in assay [19] is 3.5%; in assay [20], -1.5%; in assay [21] it was 3.5%; in [22] it was -2%; in assay [23] it was 7.5%.
